Results taken from the Kinase Knowledgebase extract (Sharma et al. 2016).

What was measured:
[1] = biological target: EGFR (human) (UniProt P00533); conditions: a549
[2] = biological target: EGFR (human) (UniProt P00533); conditions: hcc827
[3] = biological target: EGFR (human), P00533 [WT]
[4] = biological target: EGFR (human) (UniProt P00533); conditions: h1975
[5] = biological target: EGFR (human), P00533 [L858R]
Chain of EGFR (human), P00533 [L858R] (P00533 whole entry L858R, looked up): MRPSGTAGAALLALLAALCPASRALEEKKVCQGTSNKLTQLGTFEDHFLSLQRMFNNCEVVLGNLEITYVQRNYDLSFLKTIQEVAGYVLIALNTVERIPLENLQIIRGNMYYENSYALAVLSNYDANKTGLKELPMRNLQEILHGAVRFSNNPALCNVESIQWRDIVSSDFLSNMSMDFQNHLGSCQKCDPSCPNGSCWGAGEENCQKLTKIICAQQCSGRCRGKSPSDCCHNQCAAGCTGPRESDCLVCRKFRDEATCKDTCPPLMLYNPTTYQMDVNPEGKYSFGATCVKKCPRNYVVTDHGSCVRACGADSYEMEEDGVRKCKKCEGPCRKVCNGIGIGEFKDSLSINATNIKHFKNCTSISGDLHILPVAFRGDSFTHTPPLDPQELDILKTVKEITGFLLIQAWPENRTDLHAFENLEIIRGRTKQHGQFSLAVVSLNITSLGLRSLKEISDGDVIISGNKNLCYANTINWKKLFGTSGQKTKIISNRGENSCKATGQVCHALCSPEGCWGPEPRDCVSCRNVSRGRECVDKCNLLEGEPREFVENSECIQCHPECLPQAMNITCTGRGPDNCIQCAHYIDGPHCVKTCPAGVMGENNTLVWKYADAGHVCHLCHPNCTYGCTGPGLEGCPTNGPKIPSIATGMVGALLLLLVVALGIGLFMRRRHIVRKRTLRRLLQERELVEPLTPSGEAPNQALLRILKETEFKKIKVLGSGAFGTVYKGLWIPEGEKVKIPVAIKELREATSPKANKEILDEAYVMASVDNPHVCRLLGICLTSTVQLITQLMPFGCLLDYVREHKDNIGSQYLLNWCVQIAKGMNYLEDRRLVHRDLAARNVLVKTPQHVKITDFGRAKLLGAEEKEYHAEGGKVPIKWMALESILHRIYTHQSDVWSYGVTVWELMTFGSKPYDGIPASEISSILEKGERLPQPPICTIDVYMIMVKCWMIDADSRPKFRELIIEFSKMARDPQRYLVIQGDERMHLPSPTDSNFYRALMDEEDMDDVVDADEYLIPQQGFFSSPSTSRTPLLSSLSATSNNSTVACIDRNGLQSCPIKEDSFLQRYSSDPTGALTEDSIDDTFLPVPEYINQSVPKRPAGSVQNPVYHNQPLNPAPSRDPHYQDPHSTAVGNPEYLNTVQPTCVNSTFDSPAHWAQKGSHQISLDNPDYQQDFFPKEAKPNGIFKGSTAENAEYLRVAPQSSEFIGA

Chain of EGFR (human) (P00533 whole entry, looked up): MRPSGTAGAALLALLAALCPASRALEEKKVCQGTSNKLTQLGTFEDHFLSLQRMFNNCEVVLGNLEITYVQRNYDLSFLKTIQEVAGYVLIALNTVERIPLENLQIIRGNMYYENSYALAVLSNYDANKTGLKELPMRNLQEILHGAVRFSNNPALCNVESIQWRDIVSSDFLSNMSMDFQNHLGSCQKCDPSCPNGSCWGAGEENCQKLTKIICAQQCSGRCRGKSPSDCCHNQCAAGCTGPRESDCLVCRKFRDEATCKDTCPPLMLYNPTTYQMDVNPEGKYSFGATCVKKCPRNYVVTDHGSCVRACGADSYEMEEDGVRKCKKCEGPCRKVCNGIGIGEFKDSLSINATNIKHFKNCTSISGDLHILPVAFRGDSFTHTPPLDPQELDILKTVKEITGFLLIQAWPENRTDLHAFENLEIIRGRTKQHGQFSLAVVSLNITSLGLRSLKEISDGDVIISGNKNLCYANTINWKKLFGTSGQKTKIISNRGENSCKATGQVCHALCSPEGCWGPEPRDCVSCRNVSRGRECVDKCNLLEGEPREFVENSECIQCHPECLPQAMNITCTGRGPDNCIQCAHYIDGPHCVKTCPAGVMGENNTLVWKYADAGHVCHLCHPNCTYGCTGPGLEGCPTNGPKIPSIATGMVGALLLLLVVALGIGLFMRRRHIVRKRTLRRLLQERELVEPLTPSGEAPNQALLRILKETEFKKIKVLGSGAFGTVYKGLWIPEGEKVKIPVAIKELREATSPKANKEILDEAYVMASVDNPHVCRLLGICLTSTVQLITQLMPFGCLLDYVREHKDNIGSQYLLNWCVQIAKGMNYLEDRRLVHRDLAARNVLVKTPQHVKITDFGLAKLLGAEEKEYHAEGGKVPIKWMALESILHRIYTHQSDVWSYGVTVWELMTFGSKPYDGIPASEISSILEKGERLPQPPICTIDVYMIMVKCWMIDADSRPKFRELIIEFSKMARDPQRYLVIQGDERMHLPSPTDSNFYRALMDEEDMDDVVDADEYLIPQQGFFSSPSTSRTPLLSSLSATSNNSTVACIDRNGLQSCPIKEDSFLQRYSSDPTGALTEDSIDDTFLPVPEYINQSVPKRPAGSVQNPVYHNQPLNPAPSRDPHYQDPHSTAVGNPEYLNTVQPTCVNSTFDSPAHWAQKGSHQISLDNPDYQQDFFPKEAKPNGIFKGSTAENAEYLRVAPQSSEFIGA
Chain of EGFR (human), P00533 [WT] (P00533 whole entry, looked up): as above

| SMILES | IC50 [1] [nM] | IC50 [2] [nM] | IC50 [3] [µM] | IC50 [4] [nM] | IC50 [5] [µM] |
| --- | --- | --- | --- | --- | --- |
| COc1cc2c(Oc3ccc(NC(=O)C4=C(C)N(C)C(c5ccccc5)C4=O)cc3F)ccnc2cc1OCCCN1CCOCC1 (configuration not stated) | 1190 | 2510 | > 16 | 1460 | > 16 |
| COc1cc2c(Oc3ccc(NS(=O)(=O)c4ccc(-c5cnn(C)c5)cc4)cc3F)ccnc2cc1OCCCN1CCN(C)CC1 | > 10000 | – | – | > 10000 | – |
| COc1cc2c(Oc3ccc(NC(=O)C4=C(C)N(C)C(c5ccccc5)C4=O)cc3F)ccnc2cc1OCCCN1CCN(C)CC1 (configuration not stated) | 1240 | 2580 | 7.67 | 1060 | > 16 |
